Reference: paper PMC10178562, “Synthesis and Characterisation of Fluorescent Novel Pt(II) Cyclometallated Complexes with Anticancer Activity” (International Journal of Molecular Sciences, 2023)

Experiments:
Du145 Prostate = experiment: MTT cytotoxicity Du145; type: cell-based; settings: read-out: GI50 Concentration That Inhibits Cell Growth by 50%, 72 h
Protocol: (§1) Cytotoxicity assay studies were performed at Calvary Mater Newcastle Hospital, Waratah, NSW, Australia. In vitro studies were performed according to described methods. Complexes were prepared in DMSO as stock treatment (30 mM) solutions and stored at −20 °C. All cell lines were cultured in a humidified atmosphere with 5% CO2 at 37 °C and maintained in Dulbecco’s modified eagle’s medium (DMEM; Trace Biosciences, Melbourne, Australia) supplemented with 10% foetal bovine serum, sodium bicarbonate (10 mM), penicillin (100 IU mL^−1), streptomycin (100 μg mL^−1), and L-glutamine (4 mM). The non-cancer MCF10A cell line was cultured in DMEM.F12 (1:1) cell culture media (Composition in SI). Cytotoxicity was determined by plating cells in duplicate in 100 μL medium at a density of 2500–4000 cells per well in 96-well plates. After 24 h, when cells were in logarithmic growth, media (100 μL) with or without the test agent were added to each well (day 0). After 72 h of exposure, growth inhibitory effects were evaluated by MTT (3-[4,5-dimethylthiazol-2-yl]-2,5-diphenyltetrazolium bromide) assay, and absorbance was read at 540 nm. […] These calculations were based on the difference between the optical density values on day 0 and those at the end of drug exposure.

SJ-G2 Glioblastoma = experiment: MTT cytotoxicity SJ-G2; type: cell-based; settings: read-out: GI50 Concentration That Inhibits Cell Growth by 50%, 72 h
Protocol: as §1

MCF-7 Breast = experiment: MTT cytotoxicity MCF-7; type: cell-based; settings: for GI50: read-out: GI50 Concentration That Inhibits Cell Growth by 50%, MCF-7 Breast, 72 h, MTT
Protocol: as §1

MCF10A Breast (normal) = experiment: MTT cytotoxicity MCF10A (non-cancer); type: cell-based; settings: read-out: GI50 Concentration That Inhibits Cell Growth by 50%, 72 h
Protocol: as §1

MIA Pancreas = experiment: MTT cytotoxicity MIA; type: cell-based; settings: read-out: GI50 Concentration That Inhibits Cell Growth by 50%, 72 h
Protocol: as §1

calf thymus DNA (ctDNA) [1] = experiment: Direct ctDNA binding by inherent fluorescence (Benesi–Hildebrand); settings: inherent fluorescence method, 10 µM CMC, buffer pH 7.0
Protocol: ctDNA experiments utilising the inherent fluorescence of the complexes were completed in addition to the FID experiments. […] The values of Ka and n for the compounds are listed in Table 4, where R^2 is the linear correlation coefficient for Ka.
The direct fluorescent measurements of DNA binding constants were also obtained with the same fluorimeter using 10 mm path length quartz cells. A 0.065 M stock solution of ctDNA was titrated into a 10 µM solution of CMCs 1–3 in a 40 mM K2HPO4/KH2PO, 10 mM KCl buffer at pH 7.0. The fluorescence was measured from 550 to 750 nm excited at 320 nm inverting 4 times and waiting 3 min between the addition of ctDNA and scan time to allow adequate time for the CMCs to interact with the DNA.

calf thymus DNA (ctDNA) [2] = experiment: Fluorescent intercalator displacement (FID) assay, EtBr-saturated ctDNA; type: binding; set-up: Kq (bimolecular quenching constant) / KSV (Stern–Volmer quenching constant): unit not given here; settings: buffer pH 7.0
Protocol: To investigate the potential mechanisms of action of complexes 1–3, fluorescent intercalator displacement (FID) experiments and DNA binding experiments utilizing the innate fluorescence were undertaken. For FID experiments, the concentration of a fluorescent intercalator, in this case ethidium bromide (EtBr), that is displaced by the complex under investigation is determined. In a solution of calf-thymus DNA (ctDNA) where is saturated with EtBr, the change in fluorescence is monitored as the complex is titrated into this solution. Once the decrease in fluorescence has stopped, the concentration of the complex allows us to calculate the stoichiometric point of binding, the change in fluorescence at the point of binding (ΔFsat), the binding coefficient (Ka), bimolecular quenching constant (Kq), Stern–Volmer quenching constant (Ksv), the binding constant for fluorescence (KF), and the molar equivalents of CMC (n) at the point of intersection is the experimental stoichiometry of binding. (1) [ctDNA]Tn−∆Fx/∆Fsat=[CMC] (2) ∆Fx/∆Fsat1/n=fraction of ctDNA−CMC complex (3) 1−∆Fx/∆Fsat1/n=fraction free CMC
The fluorescence at 601 nm for each titration was plotted, and the KF and n could be calculated from the intercept and slope, respectively. (4) F0/F=1+Kqτ0CMC=1+KSV[CMC] where F0 is the fluorescence of the binding site in the absence of quencher (CMC), F is the fluorescence of the site containing the CMC, and t0 is the lifetime of the chromophore in the absence of the quencher (Ɛ476 = 5680 for ethidium-bound DNA).
A plot of F0/F against [CMC] using experimental values allows for the determination of Kq and KSV from the slope. (5) log10F0−F/F=nlog10CMC+log10KF where n is the number of ethidium ligands that are displaced per CMC. […] A plot of log10[(F0 − F)/F)] against log10[CMC] is used to determine KF and n from the intercept and slope, respectively. Experiments were performed in triplicate for each CMC.
Fluorescent intercalator displacement (FID) assays were obtained using the same instrument and by using 10 mm quartz cells. Stock solutions CMCs 1–3 (30 µM) were titrated into a solution of […] ethidium bromide, 150 µM ctDNA in a 40 mM K2HPO4/KH2PO, and 10 mM KCl buffer at pH 7.0. The fluorescence was measured from 550 to 750 nm excited at 480 nm and inverting 4 times and waiting 3 min between the addition of ctDNA and scan time to allow adequate time for the CMCs to interact with the DNA.

U87 Glioblastoma = experiment: MTT cytotoxicity U87; type: cell-based; settings: read-out: GI50 Concentration That Inhibits Cell Growth by 50%, 72 h
Protocol: as §1

A431 Skin = experiment: MTT cytotoxicity A431; type: cell-based; settings: read-out: GI50 Concentration That Inhibits Cell Growth by 50%, 72 h
Protocol: as §1

HT29 Colon = experiment: MTT cytotoxicity HT29; type: cell-based; settings: read-out: GI50 Concentration That Inhibits Cell Growth by 50%, 72 h
Protocol: as §1

H460 Lung = experiment: MTT cytotoxicity H460; type: cell-based; settings: read-out: GI50 Concentration That Inhibits Cell Growth by 50%, 72 h
Protocol: as §1

A2780 Ovarian = experiment: MTT cytotoxicity A2780; type: cell-based; settings: read-out: GI50 Concentration That Inhibits Cell Growth by 50%, 72 h
Protocol: as §1

ADDP Cis Res Ovarian = experiment: MTT cytotoxicity ADDP; type: cell-based; settings: read-out: GI50 Concentration That Inhibits Cell Growth by 50%, 72 h
Protocol: as §1

BE2-C Neuroblastoma = experiment: MTT cytotoxicity BE2-C; type: cell-based; settings: read-out: GI50 Concentration That Inhibits Cell Growth by 50%, 72 h
Protocol: as §1

[3] = Lipophilicity by RP-HPLC (log Kw); type: physicochemical; settings: isocratic 70 to 90% solvent B
Protocol: Lipophilicity was calculated using a RP-HPLC method to determine log Kw, whereby a stock solution was injected at different isocratic ratios ranging from 70 to 90% solvent B (organic) at a flow rate of 1 mL min^−1. These experiments were undertaken on an Agilent Technologies 1260 Infinity machine equipped with a Phenomenex Onyx™ Monolithic C18 reverse phase column (100 × 4.6 mm, 130 Å). The mobile phase comprised 0.06% TFA in water (solvent A) and 0.06% TFA in ACN:H2O (90:10, solvent B). The dead zero volume time was determined using potassium iodide as an external dead volume marker, further details are provided in the Supplementary Materials.

Row | Compound | GI50 (Du145 Prostate) | GI50 (SJ-G2 Glioblastoma) | GI50 (MCF-7 Breast) | GI50 (MCF10A Breast (normal)) | GI50 (MIA Pancreas) | Ka (binding constant) (calf thymus DNA (ctDNA) [1]) | KSV (Stern–Volmer quenching constant) (calf thymus DNA (ctDNA) [2]) | Ka (binding coefficient) (calf thymus DNA (ctDNA) [2]) | Kf (binding constant for fluorescence) (calf thymus DNA (ctDNA) [2]) | Kq (bimolecular quenching constant) (calf thymus DNA (ctDNA) [2]) | Point of Experimental Stoichiometry of Binding (calf thymus DNA (ctDNA) [2]) | n (number of ethidium ligands displaced per CMC) (calf thymus DNA (ctDNA) [2]) | ΔFsat (change in fluorescence at the point of binding) (calf thymus DNA (ctDNA) [2]) | GI50 (U87 Glioblastoma) | GI50 (A431 Skin) | GI50 (HT29 Colon) | GI50 (H460 Lung) | GI50 (A2780 Ovarian) | GI50 (ADDP Cis Res Ovarian) | GI50 (BE2-C Neuroblastoma) | also measured
1 | [Pt(Pepy)(SSDACH)]+ [Complex 1a] | 9 ± 2 µM | 11 ± 0.7 µM | 8.4 ± 2 µM | 6.4 ± 0.5 µM | 8 ± 1.6 µM | 2.20 × 10^4 | 1.988 | 2.75 × 10^4 | 4.35 | 0.329 | 2.84 | 0.778 | 83.82 | 5.3 ± 0.3 µM | 4.2 ± 0.5 µM | 13 ± 1 µM | 5.8 ± 0.4 µM | 12 ± 0.7 µM | 5.1 ± 0.3 µM | 34 ± 7.5 µM | SI = GI50 for normal cells/GI50 for cancer cells (MCF10A/MCF-7) (MCF-7 Breast): 0.76
2 | [Pt(DiBequ)(RRDACH)]+ [Complex 3b] | 16 ± 1.5 µM | 10.1 ± 2.6 µM | 4.2 ± 0.3 µM | 8.5 ± 1.4 µM | 12.5 ± 2 µM | 3.68 × 10^4 | 1.727 | 3.98 × 10^4 | 4.22 | 0.297 | 2.62 | 0.757 | 82.38 | 4.1 ± 0.3 µM | 3.9 ± 0.4 µM | 16 ± 0.3 µM | 8.2 ± 2.9 µM | 4.5 ± 0.3 µM | 6.9 ± 0.4 µM | 33 ± 1.2 µM | Lipophilicity × 10^−2 (log Kw) [3]: 0.4 ± 0.029 × 10^−2
3 | [Pt(Bequ)(RRDACH)]+ [Complex 2b] | 20 ± 2.7 µM | 10 ± 2.2 µM | 7.7 ± 2 µM | 10.3 ± 1.9 µM | 8.1 ± 1.6 µM | 1.39 × 10^4 | 1.662 | 1.59 × 10^4 | 3.78 | 0.271 | 2.47 | 0.668 | 89.01 | 4.3 ± 0.3 µM | 3.4 ± 0.3 µM | 30 ± 2.3 µM | 8.1 ± 1 µM | 5 ± 0.3 µM | 19 ± 3 µM | 48 ± 1.7 µM | Lipophilicity × 10^−2 (log Kw) [3]: 3.97 ± 0.053 × 10^−2; SI = GI50 for normal cells/GI50 for cancer cells (MCF10A/MCF-7) (MCF-7 Breast): 1.33
4 | [Pt(Pepy)(RRDACH)]+ [Complex 1b] | 41 ± 0.9 µM | 20 ± 4.8 µM | 13 ± 1.7 µM | 32 ± 2.7 µM | 41 ± 2 µM | 1.46 × 10^4 | 1.957 | 1.58 × 10^4 | 4.23 | 0.328 | 2.65 | 0.757 | 86.38 | 23 ± 2.2 µM | 29 ± 2.6 µM | 41 ± 2.7 µM | 25 ± 2.9 µM | 31 ± 2.9 µM | 26 ± 0.6 µM | 38 ± 4.6 µM | Lipophilicity × 10^−2 (log Kw) [3]: 1.52 ± 0.063 × 10^−2
5 | Cc1c(C)c2cccnc2c2ncccc12.N[C@H]1CCCC[C@@H]1N.[Pt] [Complex 56MESS, reference compound] | 0.007 ± 0.002 µM | 0.074 ± 0.018 µM | 0.05 ± 0.02 µM | 0.032 ± 0.007 µM | 0.015 ± 0.002 µM |  |  |  |  |  |  |  |  | 0.076 ± 0.014 µM | 0.051 ± 0.021 µM |  | 0.037 ± 0.009 µM | 0.03 ± 0.004 µM |  | 0.1 ± 0.016 µM | SI = GI50 for normal cells/GI50 for cancer cells (MCF10A/MCF-7) (MCF-7 Breast): 0.64
6 | N.N.[Cl][Pt][Cl] [Cisplatin, cisplatin, reference compound] | 1.2 ± 0.1 µM | 0.4 ± 0.1 µM | 6.5 ± 0.8 µM |  | 7.5 ± 1.3 µM |  |  |  |  |  |  |  |  | 3.8 ± 1.1 µM | 2.4 ± 0.3 µM | 11.3 ± 1.9 µM | 0.9 ± 0.2 µM | 1 ± 0.1 µM |  | 1.9 ± 0.2 µM | 
